Our source for the TGI values is PubChem BioAssay (NCI).

The structures appear in SMILES notation.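 1) Cells in 96-well plates. 2) Compound, 48 h, 5 concentrations. 3) Linear interpolation between surrounding doses. 4) Unreached endpoint = highest concentration. TGI: total growth inhibition.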

The subject of one experiment is XF 498 CNS. The experiment can be described thus: NCI-60 cell line screen, 48 h.
With `COC(=O)c1cc(CC(C)C)c2c(c1)[nH]c1ccccc12`, the TGI is over 100 µM.

`CC(C)C(Sc1nc(-c2ccccc2)c(-c2ccccc2)[nH]1)C(=O)NNC(=S)Nc1ccccc1` (configuration not stated) showed a TGI of 32.7 µM.

As for `COc1ccc(C2C(Cl)C(=O)N2NC(=O)c2ccc(NC(C)=O)cc2)cc1` (configuration not stated), the TGI is over 100 µM.

The compound `Nc1ccccc1Nc1ccccc1C(=O)[O-].Nc1ccccc1Nc1ccccc1C(=O)[O-].[Cu+2]` registered a TGI of over 100 µM.

The test system of a further experiment is LXFL 529 NSCLC. The experiment can be described thus: NCI-60 cell line screen, 48 h.
Compound `COC(=O)c1cc(CC(C)C)c2c(c1)[nH]c1ccccc12` had a TGI of over 100 µM.

`CC(C)C(Sc1nc(-c2ccccc2)c(-c2ccccc2)[nH]1)C(=O)NNC(=S)Nc1ccccc1` (configuration not stated) came in with a TGI of 33.8 µM.

`COc1ccc(C2C(Cl)C(=O)N2NC(=O)c2ccc(NC(C)=O)cc2)cc1` (configuration not stated): the TGI is over 100 µM.

The compound `CCOC(=O)C(OCC1CC=CCC1)Sc1ccccc1` (configuration not stated) displayed a TGI of over 100 µM.

The subject of the next experiment is SNB-78 CNS. The experiment can be described thus: NCI-60 cell line screen, 48 h.
With `CC(C)C(Sc1nc(-c2ccccc2)c(-c2ccccc2)[nH]1)C(=O)NNC(=S)Nc1ccccc1` (configuration not stated), the TGI stood at 79.6 µM.

Consider `COc1ccc(C2C(Cl)C(=O)N2NC(=O)c2ccc(NC(C)=O)cc2)cc1` (configuration not stated), for which the TGI was over 100 µM.

The compound `CCOC(=O)C(OCC1CC=CCC1)Sc1ccccc1` (configuration not stated) registered a TGI of over 100 µM.

The test system of the next experiment is HOP-18 NSCLC. The experiment can be described thus: NCI-60 cell line screen, 48 h.
As for `CCOC(=O)C(OCC1CC=CCC1)Sc1ccccc1` (configuration not stated), the TGI was over 100 µM.

The next experiment concerns DMS 114 small cell lung. Kind of experiment: NCI-60 cell line screen, 48 h.
Consider `COC(=O)c1cc(CC(C)C)c2c(c1)[nH]c1ccccc12`, for which the TGI was over 100 µM.

`CCOC(=O)C(OCC1CC=CCC1)Sc1ccccc1` (configuration not stated) gave a TGI of over 100 µM.

In the next experiment the test system is DLD-1 colon. Kind of experiment: NCI-60 cell line screen, 48 h.
With `COC(=O)c1cc(CC(C)C)c2c(c1)[nH]c1ccccc12`, the TGI was over 100 µM.

The compound `CC(C)C(Sc1nc(-c2ccccc2)c(-c2ccccc2)[nH]1)C(=O)NNC(=S)Nc1ccccc1` (configuration not stated) showed a TGI of 52 µM.

On to `COc1ccc(C2C(Cl)C(=O)N2NC(=O)c2ccc(NC(C)=O)cc2)cc1` (configuration not stated), for which the TGI was over 100 µM.

Take `CCOC(=O)C(OCC1CC=CCC1)Sc1ccccc1` (configuration not stated): the TGI is over 100 µM.

The next experiment deals with M19-MEL melanoma. The experiment can be described thus: NCI-60 cell line screen, 48 h.
As to `COC(=O)c1cc(CC(C)C)c2c(c1)[nH]c1ccccc12`, the TGI was over 100 µM.

For `CC(C)C(Sc1nc(-c2ccccc2)c(-c2ccccc2)[nH]1)C(=O)NNC(=S)Nc1ccccc1` (configuration not stated), the TGI turned out to be 33.4 µM.

The compound `COc1ccc(C2C(Cl)C(=O)N2NC(=O)c2ccc(NC(C)=O)cc2)cc1` (configuration not stated) had a TGI of over 100 µM.

With `CCOC(=O)C(OCC1CC=CCC1)Sc1ccccc1` (configuration not stated), the TGI is over 100 µM.

For the next experiment, the system named is NCI-H460 lung. Kind of experiment: NCI-60 cell line screen, 48 h.
Turning to `Cc1ccc2c(c1)nc(N)n[n+]2[O-]`, the TGI is over 100 µM.

For the compound `Cc1cn(C2CC(N)C(CN)O2)c(=O)[nH]c1=O` (configuration not stated), the TGI was over 100 µM.

Compound `Nc1nc2ncc(SCc3ccc(C(=O)NC(CCC(=O)O)C(=O)O)cc3)cc2c(=O)[nH]1` (configuration not stated) gave a TGI of over 100 µM.

For the compound `COc1ccc2c(c1)c1c(n2CCN2CCOCC2)-c2ccccc2CC1`, the TGI worked out at 89.2 µM.

`O=C1CC(O)c2c1csc2Br` (configuration not stated) came in with a TGI of over 100 µM.

In the case of `CCCCCCCCCC[C@@H](O)[C@H]1CC[C@H]([C@H]2CC[C@H]([C@H](O)CCCCCCCCCC[C@@H]3CC(CC(C)=O)C(=O)O3)O2)O1` (some centres not stated), the TGI is over 50 µM.

For the compound `CC(C)(C)C(=O)C(CC(=O)c1ccccc1)C(=O)C(C)(C)C`, the TGI is over 100 µM.

In turn, `COC(=O)c1cc(CC(C)C)c2c(c1)[nH]c1ccccc12` returned a TGI of over 100 µM.

Turning to `CCOC(=O)c1cc(C2(O)CCN(Cc3ccccc3)C2=O)c(-c2cc(C)no2)[nH]1` (configuration not stated), the TGI was over 100 µM.

Consider `Cc1cn(C2C=CC(COP(=O)(OCC3=CC(=O)c4ccccc4C3=O)N(C)CCCCCl)O2)c(=O)[nH]c1=O` (configuration not stated), for which the TGI came to 11.2 µM.

`Clc1nc(Cl)nc(NC23CC4CC(CC(C4)C2)C3)n1` yielded a TGI of 60.4 µM.

The compound `CCOC(=O)c1cc2c([N+](=O)[O-])c(NC(C)=O)ccc2s1` returned a TGI of over 100 µM.

On to `CCOC(=O)c1cc(=C2\CCN(CC(C)CC)C2=S)/c(=C(/O)CC)[nH]1` (configuration not stated), for which the TGI is 40.8 µM.

Consider `Cc1ccc2c(c1C)CC1(Cc3c(ccc4c3CCC4)C1=O)C2=O` (configuration not stated), for which the TGI was over 100 µM.

Take `OCC1CCCC(n2cnc3c(=S)nc[nH]c32)O1` (configuration not stated): the TGI is over 100 µM.

For the compound `COc1cc2oc(-c3ccc(O)cc3)c(OC3OC(C)C(O)C(O)C3O)c(=O)c2c(O)c1OC` (configuration not stated), the TGI was over 100 µM.

Regarding `CCCCc1c(O)nc(Nc2nc3ccccc3[nH]2)[nH]c1=O`, the TGI is over 100 µM.

For the compound `Clc1cc(N/N=C(/c2ccccc2)c2ncccn2)ncn1`, the TGI turned out to be 46.6 µM.

`O=C1CC2C=CC(O)C(C1)C2` (configuration not stated) displayed a TGI of over 100 µM.

As for `Cc1c(S(=O)(=O)c2ccccc2)c(N)n(Cc2ccccc2)c1C`, the TGI is over 100 µM.

On to `COC(=O)C1(Cc2ccccc2)Cc2cc3c(cc2C1=O)CCC3` (configuration not stated), for which the TGI turned out to be 35 µM.

In the case of `N#CC1=C(N)OC2=C(CSc3ccccc32)C1c1ccc(Br)cc1` (configuration not stated), the TGI was 26.8 µM.

In turn, `CCC(=O)C(c1ccccc1)c1ccccn1` (configuration not stated) gave a TGI of over 100 µM.

Consider `CCCN=C1CC(C)Nc2ccccc2N1` (configuration not stated), for which the TGI is over 100 µM.

Regarding `Cc1ccc(-c2cc(N)n(-c3nc4c([nH]3)c(=O)n(C)c(=O)n4C)n2)cc1`, the TGI came out at 18.4 µM.

Regarding `Cc1sc2nc3n(c(=O)c2c1C)N=CN(c1ccccc1)C3`, the TGI was over 100 µM.

The compound `CC(C)C(Sc1nc(-c2ccccc2)c(-c2ccccc2)[nH]1)C(=O)NNC(=S)Nc1ccccc1` (configuration not stated) had a TGI of 33.9 µM.

`COc1ccc(N2C(=O)C3c4[nH]c5ccc([N+](=O)[O-])cc5c4C4CCC(C(C)(C)C)CC4C3C2=O)cc1` (configuration not stated) came in with a TGI of 63.9 µM.

For `COC(=O)C1=C(C(=O)OC)C2OC1C1C2C2(C)C(C)=C(C)C1(C)S2=O` (configuration not stated), the TGI is 36.3 µM.

As for `CC(C)(C)OC(=O)NC(C)(C)C(=O)NCCC(=O)O`, the TGI is over 100 µM.

With `CCOC(=O)CCC(NC(=O)c1ccc(OCc2nc3cc(C(F)(F)F)ccc3nc2-c2ccccc2)cc1)C(=O)OCC` (configuration not stated), the TGI was over 100 µM.

With `O=C(O)c1ccc(NC(c2ccccc2)c2ccc3cccnc3c2O)cc1` (configuration not stated), the TGI is over 48.5 µM.

`CC12CC(c3ccccc3O1)C(C(=O)Nc1ccc(F)cc1)C(=O)N2` (configuration not stated) came in with a TGI of over 100 µM.

`O=c1c2c3ccccc3[nH]c2c2cccc3c2n1CCC3`: the TGI is over 100 µM.

The compound `COc1ccc(C2C(Cl)C(=O)N2NC(=O)c2ccc(NC(C)=O)cc2)cc1` (configuration not stated) displayed a TGI of over 100 µM.

In turn, `c1ccc([P+](CCNCCNCC[P+](c2ccccc2)(c2ccccc2)c2ccccc2)(c2ccccc2)c2ccccc2)cc1` showed a TGI of over 100 µM.

As to `COc1ccc(-c2c(C#N)c(N)n(C3OC(CO)C(O)C(O)C3O)c(=S)c2C#N)cc1` (configuration not stated), the TGI was over 100 µM.

Compound `CCOC(=O)c1sc2nc(SC)nc3c2c1N=CN3c1ccc(Br)cc1` gave a TGI of over 100 µM.

As to `C=CCN(CC=C)Cn1c(=S)sc2ccccc21`, the TGI was over 100 µM.

The compound `CC[C@@H]1CC[C@@H]2[C@H](CC[C@]3(C)[C@@H](O)CC[C@@H]23)[C@H]1C(=O)O` yielded a TGI of over 100 µM.

For the compound `Nc1nc(Cl)cc(NCC2(CO)CC(CCc3ccccc3)C2)n1` (configuration not stated), the TGI is over 100 µM.

Regarding `O=c1c2ccccc2[nH]c(=S)n1-c1ccc(N=Nc2cccc3c(O)cccc23)cc1`, the TGI is over 100 µM.

`CCOc1ccc(N/C(=C(/C(Cl)=C(/Cl)NCCN)[N+](=O)[O-])n2nnc3ccccc32)cc1` had a TGI of over 100 µM.

On to `N#C/C(=C\NC(=S)Nc1ccc(S(=O)(=O)Nc2ccccn2)cc1)C(N)=O`, for which the TGI is over 100 µM.

On to `CC(=O)NC1C(OCc2ccccc2)OC(CO)C(O)C1OCC(=O)N[C@@H](C)C(=O)N[C@H](CCC(=O)NCCNCCNc1c2ccccc2nc2cccc([N+](=O)[O-])c12)C(N)=O` (some centres not stated), for which the TGI came to 36.5 µM.

For `c1cc2nnc1SCCSCCSc1ccc(nn1)SCCSCCS2`, the TGI is over 100 µM.

For the compound `O=C1CC(C(O)CO)CC(=O)N1` (configuration not stated), the TGI is over 100 µM.

The compound `COc1ccc(-c2c(C#N)c(S)n(C3OC(COC(C)=O)C(OC(C)=O)C(OC(C)=O)C3OC(C)=O)c(=O)c2C#N)cc1` (configuration not stated) showed a TGI of over 100 µM.

Take `C[C@]12OC[C@H](c3ccccc3)N1C(=O)C1[C@H]2CC12SCCS2` (some centres not stated): the TGI is over 100 µM.

The compound `O=C(Cc1nc2ccc(C(=O)c3ccccc3)cc2[nH]c1=O)C(=O)Nc1ccc(Br)cc1` came in with a TGI of over 100 µM.

Compound `c1sc(NC2=NCCO2)c2c1CCCC2` came in with a TGI of over 100 µM.

`Cc1c(Cl)ccc2c(=O)c3cccc(CC(=O)O)c3oc12` returned a TGI of over 100 µM.

Compound `CC(=O)C(CN1CCCCC1)C(c1ccccc1)c1c(O)c2ccccc2oc1=O` (configuration not stated) displayed a TGI of over 100 µM.

The compound `C/C(=N\NC(=S)NC(C)C)c1nc2ncccc2[nH]1` displayed a TGI of over 100 µM.

Turning to `O=c1oc2ccccc2c(O)c1C(c1cc(OCc2ccccc2)cc(OCc2ccccc2)c1)c1c(O)c2ccccc2oc1=O`, the TGI amounted to 11 µM.

In the case of `Cc1cccc(N2C(=O)C3ON(C(C(N)=O)c4ccccc4)C(c4c5ccccc5c(Cl)c5ccccc45)C3C2=O)c1C` (configuration not stated), the TGI came out at 21.6 µM.

In turn, `Nc1ccccc1Nc1ccccc1C(=O)[O-].Nc1ccccc1Nc1ccccc1C(=O)[O-].[Cu+2]` returned a TGI of over 100 µM.

Consider `Cc1ccccc1C1OC1C(=O)c1ccccc1N` (configuration not stated), for which the TGI is over 100 µM.

In turn, `Cc1cc(-c2nc3ccccc3s2)ccc1NS(=O)(=O)O` displayed a TGI of over 100 µM.

In turn, `CCOC(=O)C(OCC1CC=CCC1)Sc1ccccc1` (configuration not stated) registered a TGI of over 100 µM.
